{
  "source": "paper PMC9061999",
  "about": "“Application of the Adverse Outcome Pathway Concept to In Vitro Nephrotoxicity Assessment: Kidney Injury due to Receptor-Mediated Endocytosis and Lysosomal Overload as a Case Study” (Frontiers in Toxicology, 2022)",
  "system": "NRK-52E cells",
  "experiment": "High content imaging of lysosomes and nuclei (LysoView 633 / SYTO 16)",
  "type": "cell-based, rat",
  "method": "For high content imaging, NRK-52E and RPTEC/TERT1 cells were cultivated in µ-clear half well area microtiter plates (Greiner) according to the protocol described for the cytotoxicity assay with slight modification. Briefly, NRK-52E cells were seeded at 5,000 cells in 100 µL growth medium per well and were incubated under standard growth conditions for 48 h prior to treatment. RPTEC/TERT1 cells were seeded at 15,000 cells in 100 µL growth medium per well and incubated under standard growth conditions for 7–8 days, until cells reached confluence and started to differentiate. This was indicated by the formation of three-dimensional structures referred to as domes which were identified by regular microscopic inspection of the plates. Only differentiated cell cultures with detectable domes were assayed. Cells of both cell lines were treated with serially diluted Polymyxin B sulfate (concentration range 7.8 to 2,000 µM) for 1, 2, 4, 6, or up to 24 h. The assay was carried out on three biological replicates defined as three different non-consecutive passages of the cell culture. Each biological replicate at each treatment concentration was assayed in triplicate wells per plate.\nFollowing treatment, cells were stained with two different combinations of fluorescent dyes: NRK-52E cells with 50 pg/μL LysoView™ 633 (Biotium) and 1 µM SYTO 16 (Thermo Scientific), respectively, for lysosomes and nuclei; RPTEC/TERT1 cells with 10 nM LysoTracker™ Red (Thermo Scientific) and 10 ng/μL Hoechst 33342 (Merck-Sigma Aldrich), respectively, for lysosomes and nuclei. For each cell line a staining solution was obtained by mixing the lysosomes and nuclei dyes in cell culture medium at the concentrations indicated above. […]\nImages were acquired with a fully automated fluorescence confocal Opera™ QEHS system (PerkinElmer, United Kingdom) using a ×40 air UPlanApo objective (Olympus) with 0.85 numerical aperture. […]\nThe images were analyzed by custom-made image analysis scripts either with the imaging analysis software Acapella (version 2.8 PerkinElmer) or Columbus (version 2.4.0 PerkinElmer). […]",
  "data": [
    {"substance": "Polymyxin B", "values": [
      {"measurement": "Treatment time at which changes in nuclei area and nuclei intensity appeared", "setting": "NRK-52E, 250 µM", "value": 20, "unit": "h"},
      {"measurement": "Treatment time at which lysosomal effects with nuclear changes first appeared", "setting": "NRK-52E, 500 µM", "value": 12, "unit": "h"},
      {"measurement": "Treatment time from which lysosomal effects were accompanied by nuclear changes", "setting": "NRK-52E, 1,000 and 2000 µM", "value": 8, "unit": "h"}
    ]}
  ]
}
